This is an account of results in patent US20150157615A1, “COMPOSITIONS AND METHOD FOR THE STIMULATION OF THE FEMALE AND MALE SEXUAL RESPONSE” (MULTICHEM S.A.S. DI GABRIELE SEGALLA, priority 2013, published 2015).

Data set [1] deals with skin. Conditions: Norwegian Food Safety Authority risk profile / Council of Europe monograph 2008; cited from earlier work.
For another data set, the system named is male sexual response. As to the method: (§1) The application is preferably carried out 4-5 minutes before intercourse, but can also be repeated during intercourse itself whenever required.
The next data set deals with female sexual response. The protocol:
as §1

Data set [2] has as its system skin. The following applies: in the concentrations provided by the present invention.
Another data set deals with human skin. The following applies: application on human skin; IJSPT Vol. 6 No. 2, 2011; cited from earlier work.
Setting [3] is: men, alone, at least 0.5% up to 5% by weight, topical.
Where [4] appears, read: women, alone, at least 0.5% up to 5% by weight, topical.

Regarding `COC(=O)c1cccnc1` [methyl nicotinate], the “concentration at which highly irritating to the skin in some cases” value with skin [1] is recorded as 0.00137-0.003%.

On to `CC1CCC(C(C)C)C(OC(=O)c2cccnc2)C1` (stereo not drawn) [menthyl nicotinate, 5-Methyl-2-(isopropyl) cyclohexyl nicotinate], for which the “turgidity of the tissues / reddening or itching” value in the data set with male sexual response (in vivo) is “without however causing annoying reddening or itching”. In addition, in the data set with male sexual response (setting [3]), the “flow of blood in the corpora cavernosa, turgidity and power of erection” value is listed as “A greater flow of blood”; the “retardant and reinvigorating effect” value was “A retardant and at the same reinvigorating effect”; the sexual stimulation entry is given as “more intense”; the “voluntary control of ejaculation” value is reported as “Greater ability”. In addition, the “turgidity of the tissues / reddening or itching” value with female sexual response (in vivo) is reported as “without however causing annoying reddening or itching”. For the same compound, in the data set on female sexual response (setting [4]), the “latency period (period of time between orgasms)” value is given as “Decrease”; the number of orgasms entry is reported as “Multiple orgasms”; the “stimulation of the clitoris” value is “Intense and prolonged stimulation”; the “time necessary for reaching orgasm” value is given as “Decrease”. Besides, in the data set on female sexual response (setting [4]), the times of foreplay result was “Decrease”. Moreover, the “duration of perception of cool tingling in the zone of application” value in the data set on female sexual response (women, depends on individual and concentration of active ingredient) was “up to one hour and more”. In addition, the “rubefacient and itching effect” value with skin [2] is “does not exhibit any unpleasant rubefacient and itching effect”.

For the compound `CC1CCC(C(C)C)C(O)C1` (stereo not drawn) [menthol], the “flow of blood in the part treated topically” value with human skin was “reduces the flow of blood”.
